Where a name gives a salt, the structure may show the parent alone.
Assays:
[1] = target: T1, factor Xa (Homo sapiens, UniProt P00742); details: 6 nkat/mL factor Xa in 20 mM Hepes pH 7.5, 1.5 mM substrate S-2732, 37° C., mAbs/min at 405 nm, concentrations in mM
Method: In this experiment, activity of factor Xa in the presence of guanidine sulfate and its derivatives (e.g., 1-methylguanidine sulfate, 1,1-dimethylguanidine sulfate, 1,1-diethylguanidine, N-benzyl, N-methylguanidine sulfate, 1,1,3,3-tetramethylgunidine and 1,1-dimethylbiguanide HCl) was evaluated using a chromogenic assay. In the experiment, each guanidine derivative was dissolved in deionized (DI) water to a final concentration of 100 mM. A number of such guanidine dilutions were prepared. Guanidine derivative levels in the solutions were tested in triplicate at 37° C. as follows: 40 μL (microliters) of each guanidine derivative level was incubated for 20 seconds(s) to 60 s before 40 μL of 6 nkat/mL factor Xa in 20 mM Hepes pH 7.5 buffer was added to the reaction. After an incubation period of 150 s to 180 s, 100 μL of 1.5 mM factor Xa chromogenic substrate S-2732™ was added to the reaction and milli-absorbance per minute (mAbs/min) at 405 nm (nanometers) was measured after a 20 s delay.

[2] = target: T1, factor Xa; assay: chromogenic assay of the effects of guanidine sulfate and alkylated guanidines on factor Xa activity (FIG. 4); assay type: biochemical; details: 6 nkat/mL factor Xa in 20 mM HEPES pH 7.5, 1.5 mM substrate S-2732, mAbs/min at 405 nm, dilution series in water
Method: In this experiment, the effects of guanidine sulfate and the guanidine derivatives: 1-methylguanidine sulfate, 1,1-dimethylguanidine sulfate, 1,1-diethylguanidine, and N-benzyl, N-methylguanidine sulfate were analyzed using a chromogenic assay. A number of dilutions were prepared in water with guanidine or a guanidine derivative of the type described herein. 40 μL of each of the guanidine or guanidine derivatives were mixed for 20 s to 60 s with 40 μL of 6 nkat/mL factor Xa diluted in 20 mM HEPES, pH 7.5 buffer. After an incubation period of 150 s to 180 s, 100 μL of the factor Xa chromogenic substrate S-2732™ (1.5 mM) was added to each of the guanidine and factor Xa mixtures and each mixture was chromogenically measured at 405 nm mAbs/min after a 20 s delay.

[3] = target: T1, factor Xa; assay: substrate turnover rates at different factor Xa levels, 1,1-dimethylguanidine compared with NaCl (FIG. 6); assay type: biochemical; details: 22 mM 1,1-dimethylguanidine vs 33 mM NaCl, 1.5 mM S-2732, 37° C., 405 nm
Method: Guanidine derivatives modulate factor Xa enzymatic activity in a reaction, as explained previously, thereby slowing-down the reaction. As a result, greater amounts and/or concentrations of factor Xa can be used in a reaction when a guanidine derivative is incorporated into the reaction. In this experiment, factor Xa levels were tested in a reaction in triplicate at 37° C. as follows: 40 μL of factor Xa was incubated for 20 s to 60 s before 40 μL of 100 mM 1,1-dimethylguanidine or 150 mM NaCl in water was added to the reaction. After an incubation period of 150 s to 180 s, 100 μL of 1.5 mM factor Xa chromogenic substrate S-2732™ was added to the reaction and mAbs/min at 405 nm was measured after a 20 s delay. In FIG. 6, substrate turnover rates (e.g., coloring of the substrate) in the presence of 22 mM 1,1-dimethylguanidine 601 were compared to substrate turnover rates in the presence of 33 mM NaCl 602. As evident from FIG. 6, greater amounts and/or concentrations of factor Xa can be added to the reaction in the presence of 1,1-dimethylguanidine to produce the same substrate turnover rates relative to NaCl. […] Greater amounts and/or concentrations of factor Xa facilitate detection of factor Xa inhibitors or reversal of such inhibitors in an assay, as noted previously.

[4] = target: T1, factor Xa; assay: chromogenic factor Xa activity in a plasma sample containing dimethylguanidine, 9:1 sample to factor Xa ratio (FIG. 7); assay type: biochemical; details: 50 mM vs 25 mM dimethylguanidine, 1.5 mM S-2732, 37° C.
Method: In this experiment, 180 μL of a plasma sample containing dimethylguanidine (DMG) and 1.5 mM substrate S-2732™ were mixed with 20 μL of factor Xa (a 9:1 sample to factor Xa ratio). The activity of factor Xa was determined at 37° C. based on chromogenic activity of the substrate. The activity of factor Xa linearly correlates with the factor Xa concentration in the presence of dimethylguanidine. […] Thus, increasing the amount of dimethylguanidine in a sample reduces a rate of the reaction. In some implementations, dimethylguanidine can be added to a reaction at a concentration of up to about 500 mM.

T1 sequence (P00742 235-488 limits assumed): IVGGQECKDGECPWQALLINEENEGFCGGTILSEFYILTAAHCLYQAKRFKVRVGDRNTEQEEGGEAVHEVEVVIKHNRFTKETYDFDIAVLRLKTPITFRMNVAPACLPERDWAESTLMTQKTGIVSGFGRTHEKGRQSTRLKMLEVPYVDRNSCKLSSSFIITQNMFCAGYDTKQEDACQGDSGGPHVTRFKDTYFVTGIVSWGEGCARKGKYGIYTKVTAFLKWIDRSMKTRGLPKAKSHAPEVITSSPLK
T1 sequence (P00742 41-179 partner limits assumed): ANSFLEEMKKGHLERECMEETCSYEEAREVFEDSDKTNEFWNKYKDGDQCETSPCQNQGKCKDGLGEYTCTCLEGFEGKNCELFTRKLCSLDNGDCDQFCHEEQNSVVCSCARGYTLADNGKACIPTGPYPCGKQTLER

| SMILES | factor Xa activity plotted against guanidine derivative or NaCl concentration [1] | extent of factor Xa inhibition [2] | also measured |
| --- | --- | --- | --- |
| [Cl-].[Na+] [NaCl, reference compound] | activates factor Xa activity |  |  |
| CCN(CC)C(=N)N.O=S(=O)(O)O [1,1-diethylguanidine sulfate] |  | largest extent of factor Xa inhibition |  |
| N=C(N)N [guanidine sulfate] | modulate factor Xa dose-dependently, although less than 1-methylated guanidine sulfate | least amount of reduction in factor Xa inhibition |  |
| CN(C)C(=N)N.O=S(=O)(O)O [1,1-dimethylguanidine sulfate] |  | largest extent of factor Xa inhibition |  |
| CN(C)C(=N)N [1,1-dimethylguanidine] |  |  | substrate turnover rates (reaction rate) relative to NaCl [3]: slowed-down; rate of the factor Xa reaction (chromogenic activity) [4]: slows reaction of the factor Xa in a sample greater than 25 mM of dimethylguanidine |
| CN(Cc1ccccc1)C(=N)N.O=S(=O)(O)O [N-benzyl N-methylguanidine sulfate] |  | reduced factor Xa inhibition as compared to the factor Xa inhibition of mixtures containing dialkylated guanidine derivatives |  |
| CNC(=N)N [1-methylguanidine sulfate] | modulates factor Xa dose-dependently | reduced factor Xa inhibition as compared to the factor Xa inhibition of mixtures containing dialkylated guanidine derivatives |  |
| CN(C)C(=N)NC(=N)N [1,1-dimethyl-biguanide, reference compound] | modulate factor Xa dose-dependently, although less than 1-methylated guanidine sulfate |  |  |
